# PMC12285096, “Tirzepatide mitigates Stroke-Induced Blood-Brain barrier disruption by modulating Claudin-1 and C/EBP-α pathways” (Molecular Medicine, 2025)
# What was measured:
# MCAO mice [1] = test: TTC staining, infarct volume in MCAO mice; type: in vivo, mouse; details: MCAO + TZP mice, 10 nmol/kg i.p., MCAO mice 38.5 ± 4.2%, mean ± SD, Fig. 1B
# MCAO mice [2] = test: Behavioral toxicity observation in the MCAO model; details: TZP 10 nmol/kg i.p. weekly
# C/EBP-α = C/EBP-α expression in mouse cortex (RT-PCR, western blot); type: in vivo; details: Fig. 4A, B
# Procedure: 1 mL of RNAiso Plus solution was added to the pulverized rodent cerebral cortex samples or cellular material. Following complete homogenization, the liquid fraction was extracted after high-speed centrifugation. The overall RNA pellet was then washed with 75% ethanol, and the RNA was subsequently harvested for reverse transcription. These specific procedures were carried out in accordance with the instructions provided in the PrimeScript RT reagent Kit (TaKaRa, Japan). Real-time PCR detection was performed following the experimental protocols of the Applied Biosystems 7300 instrument. Gene expression levels were determined based on cycle threshold counts.
# Claudin-1 and C/EBP-α were analyzed in brain homogenates (right hemisphere: Sham, MCAO, MCAO + TZP) and HBMVECs (Control, OGD/R, OGD/R + TZP). A lysis solution, composed of 1% protease inhibitor in RIPA buffer (Sigma-Aldrich, R0278), was introduced to samples, which were homogenized over ice for 30 min. The homogenate was centrifuged at 13,500 rpm for 10 min at 4 °C. Protein was quantified using the BCA assay kit (Sigma-Aldrich, BCA1), and 50 µg protein/lane was separated on 10% SDS-PAGE and transferred to PVDF in electrophoresis buffer at 200 mA for 2 h. The membrane was blocked with 5% skim milk in TBST for 1 h. […] Bands were detected via ECL (Bio-Rad, 1705061), quantified with ImageJ, and normalized to GAPDH.
# Claudin-1 = Claudin-1 expression in OGD/R-stimulated HBMVECs (real-time PCR, western blot); type: cell-based, human; details: for Claudin-1 expressions (mRNA): sh-C/EBP-α experiment, Fig. 9D
# Procedure: 1 mL of RNAiso Plus solution was added to the pulverized rodent cerebral cortex samples or cellular material. Following complete homogenization, the liquid fraction was extracted after high-speed centrifugation. The overall RNA pellet was then washed with 75% ethanol, and the RNA was subsequently harvested for reverse transcription. These specific procedures were carried out in accordance with the instructions provided in the PrimeScript RT reagent Kit (TaKaRa, Japan). Real-time PCR detection was performed following the experimental protocols of the Applied Biosystems 7300 instrument. Gene expression levels were determined based on cycle threshold counts. Claudin-1 and C/EBP-α were analyzed in brain homogenates (right hemisphere: Sham, MCAO, MCAO + TZP) and HBMVECs (Control, […] lysis solution, composed of 1% protease inhibitor in RIPA buffer (Sigma-Aldrich, R0278), was introduced to samples, which were homogenized over ice for 30 min. The homogenate was centrifuged at 13,500 rpm for 10 min at 4 °C. Protein was quantified using the BCA assay kit (Sigma-Aldrich, BCA1), and 50 μg protein/lane was separated on 10% SDS-PAGE and transferred to PVDF in electrophoresis buffer at 200 mA for 2 h. The membrane was blocked with 5% skim milk in TBST for 1 h. Primary antibodies were incubated overnight at 4 °C: Claudin-1 (1:1000, Abcam, ab15098), C/EBP-α (1:1000, Santa Cruz Biotechnology, sc-166258), and GAPDH (1:2000, Sigma-Aldrich, A5441). HRP-conjugated secondary antibodies (1:5000, Santa Cruz, sc-2357) were incubated for 1 h. Bands were detected via ECL (Bio-Rad, 1705061), quantified with ImageJ, and normalized to GAPDH. HBMVECs were sourced from ATCC (USA). These cells were cultivated in a medium specifically designed for endothelial cultures, enriched with 10% FBS, and maintained in an incubator set at a temperature of 37 °C with 5% CO2. For OGD/R modeling, the culture medium was replaced with a serum-free, glucose-free medium, and then it was placed in a hypoxic environment (1% O2, 5% CO2, 94% N2) at a 37 °C incubator for 10 h. […]
# in vivo = details: mouse, ip, 10 nmol/kg
# Procedure: TZP concentrations were measured in plasma and brain from Sham, TZP, MCAO, and MCAO + TZP groups (n = 6 per group) after 8 weeks of treatment (TZP: 10 nmol/kg, saline: 0.1 mL, i.p., weekly). At 24 h post-final dose, mice were anesthetized (xylazine 8 mg/kg, ketamine 140 mg/kg, i.p.). Plasma was collected via cardiac puncture (0.5 mL, heparinized tubes) and centrifuged (3,000 × g, 10 min, 4 °C). The right cerebral hemisphere was harvested, rinsed in cold saline, weighed, and homogenized in 1 mL PBS with 1% protease inhibitor. Homogenates were centrifuged (10,000 × g, 15 min, 4 °C). TZP was quantified by LC-MS/MS using a Shimadzu LC-20AD system and AB Sciex QTRAP 5500. Samples were diluted 1:10 in acetonitrile with internal standard (semaglutide-d6, 10 ng/mL), separated on a C18 column (2.1 × 100 mm, 1.8 μm), and detected via multiple reaction monitoring (MRM). Calibration curves (0.1–100 ng/mL, r² > 0.99) ensured linearity. Kp, brain was calculated as [TZP]brain (ng/mL, converted from ng/g)/[TZP]plasma (ng/mL). Sham and MCAO groups (no TZP) served as controls. Liraglutide’s Kp, brain was cited from the literature (Rhea et al. [2024]).
structure (smiles),measurement,setting,value
"CC[C@H](C)[C@H](NC(=O)[C@H](CC(C)C)NC(=O)[C@H](Cc1c[nH]c2ccccc12)NC(=O)[C@H](CCC(N)=O)NC(=O)[C@@H](NC(=O)[C@H](Cc1ccccc1)NC(=O)[C@H](C)NC(=O)[C@H](CCCCNC(=O)COCCOCCNC(=O)COCCOCCNC(=O)CC[C@H](NC(=O)CCCCCCCCCCCCCCCCCCC(=O)O)C(=O)O)NC(=O)[C@H](CCC(N)=O)NC(=O)[C@H](C)NC(=O)[C@@H](NC(=O)[C@H](CCCCN)NC(=O)[C@H](CC(=O)O)NC(=O)[C@H](CC(C)C)NC(=O)C(C)(C)NC(=O)[C@@H](NC(=O)[C@H](CO)NC(=O)[C@H](Cc1ccc(O)cc1)NC(=O)[C@H](CC(=O)O)NC(=O)[C@H](CO)NC(=O)[C@@H](NC(=O)[C@H](Cc1ccccc1)NC(=O)[C@@H](NC(=O)CNC(=O)[C@H](CCC(=O)O)NC(=O)C(C)(C)NC(=O)[C@@H](N)Cc1ccc(O)cc1)[C@@H](C)O)[C@@H](C)O)[C@@H](C)CC)[C@@H](C)CC)C(C)C)C(=O)N[C@@H](C)C(=O)NCC(=O)NCC(=O)N1CCC[C@H]1C(=O)N[C@@H](CO)C(=O)N[C@@H](CO)C(=O)NCC(=O)N[C@@H](C)C(=O)N1CCC[C@H]1C(=O)N1CCC[C@H]1C(=O)N1CCC[C@H]1C(=O)N[C@@H](CO)C(N)=O [TZP, Tirzepatide]",Infarct volume (% of the ipsilateral hemisphere),MCAO mice [1],18.7 ± 3.1%
same,Behavioral toxicity,MCAO mice [2],no overt behavioral toxicity
same,"C/EBP-α levels in cortex tissues (mRNA, protein)","C/EBP-α; MCAO + TZP vs. MCAO (markedly decreased), 10 nmol/kg i.p. weekly, 8 weeks",largely enhanced
same,"C/EBP-α levels in cortex tissues (mRNA, protein)","C/EBP-α; TZP group (sham-operated, 10 nmol/kg i.p. weekly, 8 weeks) vs. Sham",notably elevated
same,"Claudin-1 expressions (mRNA, protein)","Claudin-1; OGD/R + 50 and 100 nM TZP vs. OGD/R, Fig. 7A, B",notably enhanced
same,Claudin-1 expressions (mRNA),Claudin-1; OGD/R + TZP (100 nM) vs. OGD/R,remarkably elevated
same,Claudin-1 expressions (mRNA),Claudin-1; OGD/R + sh-C/EBP-α + TZP (100 nM) vs. OGD/R + TZP,strikingly restrained
same,tissue level at time at 24 h,in vivo; Brain concentration of TZP,9.6 ± 1.2 ng/g
same,level at 24 h,in vivo; Plasma concentration of TZP,80.2 ± 10.1 ng/mL
